Experimental data as given in patent US20230113944A1, “COMPOSITIONS AND METHODS FOR THE TREATMENT OF NEURODEGENERATIVE DISEASES” (priority 2020, published 2023).
“Also recorded” adds a separate entry of the source. Like-named read-outs stand apart in the source and are kept apart here.

Legend:
[1] = target: T1, human nSMase2 (Homo sapiens, UniProt Q9NY59); assay: biochemical; format: biochemical
T1 construct: expressed in transfected cells; host or cells: HEK293T
T1 sequence (Q9NY59 1-655): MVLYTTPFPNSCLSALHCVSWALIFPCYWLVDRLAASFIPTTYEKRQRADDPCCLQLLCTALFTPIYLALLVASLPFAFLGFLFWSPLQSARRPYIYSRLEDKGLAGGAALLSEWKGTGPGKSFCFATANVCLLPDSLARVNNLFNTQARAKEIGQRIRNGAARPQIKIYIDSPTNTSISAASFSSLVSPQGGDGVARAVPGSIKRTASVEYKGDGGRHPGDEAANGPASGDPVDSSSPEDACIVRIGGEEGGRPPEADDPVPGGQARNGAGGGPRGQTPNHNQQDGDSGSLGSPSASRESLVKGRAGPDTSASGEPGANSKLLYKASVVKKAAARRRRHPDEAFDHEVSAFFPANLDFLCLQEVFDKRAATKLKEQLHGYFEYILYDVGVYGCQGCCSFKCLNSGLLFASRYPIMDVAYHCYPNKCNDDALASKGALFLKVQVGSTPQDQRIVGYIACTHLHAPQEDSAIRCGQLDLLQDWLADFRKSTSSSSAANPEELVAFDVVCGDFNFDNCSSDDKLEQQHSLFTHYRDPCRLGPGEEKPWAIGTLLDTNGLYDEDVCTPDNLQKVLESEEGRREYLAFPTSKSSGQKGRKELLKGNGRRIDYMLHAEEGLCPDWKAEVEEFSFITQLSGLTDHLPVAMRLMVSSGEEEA
Description: To evaluate nSMase2 inhibitory activity of tested compounds, cell lysates from HEK293T cells over-expressing human nSMase2 were used as the source of the nSMase2 enzyme. The Amplex Red Sphingomyelinase activity assay was performed according to previously a described protocol^1. Confluent cells were washed with PBS and harvested with lysis buffer [100 mM Tris-HCl pH 7.5, 100 mM sucrose, 100 μM PMSF, 1× protease inhibitor cocktail] using a cell scraper, and then sonicated 3 times on ice for 10 sec and centrifuged at 10,000×g for 10 min at 4° C. to remove remaining cell debris. An initial screening of a compound library was performed using 50 μM compound concentrations. In secondary testing, selected compounds were analyzed at multiple compound concentrations and plotted as a percentage of DMSO control; dose-response curves were generated to determine IC50s using GraphPad Prism software (GraphPad Software, La Jolla Calif.). […] Activity of the enzyme in the presence of the different concentrations of the inhibitors was plotted against substrate concentration and the maximal rate of the enzymatic reaction (Vmax) and Michaelis constant were calculated using GraphPad Prism.

[2] = target: T2, Human AChE (Homo sapiens, UniProt P22303); assay: biochemical
T2 construct: purchased Sigma
Description: This acetylcholinesterase (AChE) assay is based on an Amplex Red assay kit (Thermo Fisher A12217). Human AChE (Sigma) was used. Briefly, 5 μL of compounds at the desired concentration were loaded into wells of a 384-well plate. Then, 5 μl of human AChE (30 mU/mL) was loaded into each well, followed by the addition of 10 μL of the working solution which contains 400 μM Amplex Red reagent, 2 U/mL HRP, 0.2 U/mL choline oxidase, and 100 μM acetylcholine. The reaction was monitored for 60 minutes and read at 530/590 nm. AChE IC50 was determined by plotting AChE activity as a percentage of DMSO control using GraphPad Prism software.

[3] = Parallel artificial membrane permeability (IAM column) prediction of CNS permeability; format: in vitro ADME
Description: To predict the potential for brain permeability, a Regis Technologies analytical column connected to an Agilent HPLC system (Infinity 1260 quaternary pump and multiple wavelength detector; 1200 autosampler) was used. An IAM.PC.DD column was (4.6 mm i.d.×10 cm, particle size 5 μm; pore size 300 Å) conditioned with 20 column volumes of mobile phase or until a stable line was achieved. A mobile phase with a consistent flow rate of 1 mL/min was used comprising 100 mM Na2PO4 (solvent A) and acetonitrile (solvent B); compounds were eluted using a gradient (min/% B: 0/30, 10/60, 11/30, 15/30). Detector settings were 220, 250 and 280 nm and acquisition time was 15 min. The autosampler injected 10 μL of compound at 2 mM final, diluted from 10 mM in DMSO in 70:30 (water:acetonitrile). After elution, compound retention and void volume times were obtained from the chromatogram. The IAM capacity factor: (KIAM) was calculated using the equation: […]
where tr is the retention time of a compound and t0 is the void volume time of the column. To predict CNS permeability, we used the correlation described by the formula below.

[4] = target: human serum albumin (HSA) (Homo sapiens, UniProt P02768); assay: Binding to human serum albumin (HSA); conditions: human, human serum albumin
Sequence of human serum albumin (HSA) (P02768 25-609): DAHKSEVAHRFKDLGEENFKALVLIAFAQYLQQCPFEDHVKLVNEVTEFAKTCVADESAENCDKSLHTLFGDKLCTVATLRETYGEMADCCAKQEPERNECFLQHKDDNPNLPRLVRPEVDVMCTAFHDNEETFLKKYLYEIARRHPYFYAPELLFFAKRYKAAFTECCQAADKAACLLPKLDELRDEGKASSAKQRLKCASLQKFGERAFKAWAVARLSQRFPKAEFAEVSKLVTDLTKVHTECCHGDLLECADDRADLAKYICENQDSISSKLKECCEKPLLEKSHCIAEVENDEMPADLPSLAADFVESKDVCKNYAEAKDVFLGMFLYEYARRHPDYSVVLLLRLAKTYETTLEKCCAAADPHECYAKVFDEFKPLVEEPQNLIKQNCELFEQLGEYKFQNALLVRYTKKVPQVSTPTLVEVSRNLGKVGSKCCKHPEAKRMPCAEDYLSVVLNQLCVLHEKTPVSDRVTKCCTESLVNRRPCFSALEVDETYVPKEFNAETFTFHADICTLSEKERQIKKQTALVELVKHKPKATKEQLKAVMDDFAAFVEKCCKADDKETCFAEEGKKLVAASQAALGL

T2 sequence (P22303 32-614): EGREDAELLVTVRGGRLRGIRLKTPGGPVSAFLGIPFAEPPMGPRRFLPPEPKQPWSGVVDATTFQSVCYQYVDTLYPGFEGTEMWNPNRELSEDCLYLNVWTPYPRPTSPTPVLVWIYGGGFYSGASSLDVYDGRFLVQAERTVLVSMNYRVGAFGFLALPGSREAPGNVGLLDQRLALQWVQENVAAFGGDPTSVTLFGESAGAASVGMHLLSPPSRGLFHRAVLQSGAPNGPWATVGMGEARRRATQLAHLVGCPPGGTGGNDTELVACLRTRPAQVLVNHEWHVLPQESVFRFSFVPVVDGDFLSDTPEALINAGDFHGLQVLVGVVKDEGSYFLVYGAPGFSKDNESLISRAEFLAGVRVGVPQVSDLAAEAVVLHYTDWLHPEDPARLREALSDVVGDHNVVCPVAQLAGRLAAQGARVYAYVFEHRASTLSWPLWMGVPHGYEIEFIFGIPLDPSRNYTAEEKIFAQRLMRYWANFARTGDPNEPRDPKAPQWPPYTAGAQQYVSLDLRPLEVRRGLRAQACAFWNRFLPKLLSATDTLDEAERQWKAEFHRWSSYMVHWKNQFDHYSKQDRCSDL

Row | Compound | IC50 ([1]; IC50 (nSMase2) Groups: A-D) [µM] | IC50 ([2]; AChE activity) [µM] | other results
1 | COc1ccc2c(n1)[C@]1(C)CCO[C@@H]1N2 | > 50 | – | –
2 | COc1ccc2c(n1)[C@]1(c3ccccc3)CCO[C@@H]1N2 | > 50 | – | –
3 | C=CC[C@@]12CCO[C@@H]1Nc1ccc(OC)nc12 | > 50 | – | –
4 | COc1ccc2c(n1)[C@]1(C)CCCO[C@@H]1N2 | > 50 | – | –
5 | COc1ccc2c(n1)[C@]1(C)CCN(S(=O)(=O)c3ccc(C)cc3)[C@@H]1N2 | 10 to 50 | – | –
6 | C=CC[C@@]12CCN(S(=O)(=O)c3ccc(C)cc3)[C@@H]1Nc1ccc(OC)nc12 | > 50 | – | –
7 | COC(=O)N1CCC[C@@]2(C)c3nc(OC)ccc3N[C@@H]12 | > 50 | – | –
8 | C[C@@]12CCO[C@@H]1Nc1ccc(Br)nc12 | > 50 | – | –
9 | C[C@@]12CCO[C@@H]1Nc1ccc(Cl)nc12 | > 50 | – | –
10 | COc1ccnc2c1N[C@H]1OCC[C@@]21C | > 50 | – | –
11 | COc1nccc2c1N[C@H]1OCC[C@@]21C | > 50 | – | –
12 | COc1cnc2c(c1)[C@]1(C)CCO[C@@H]1N2 | > 50 | – | –
13 | C[C@@]12CCO[C@@H]1Nc1cccnc12 | > 50 | – | –
14 | C[C@@]12CCO[C@@H]1Nc1ncccc12 | > 50 | – | –
15 | C[C@@]12CCO[C@@H]1Nc1ccc(OCc3ccccc3)nc12 | > 50 | – | –
16 | CN1c2ccc(OCc3ccccc3)nc2[C@]2(C)CCO[C@H]12 | > 50 | – | –
17 | CCN1c2ccc(OCc3ccccc3)nc2[C@]2(C)CCO[C@H]12 | > 50 | – | –
18 | C[C@@]12CCO[C@@H]1Nc1ccc(O)nc12 | > 50 | – | –
19 | CN1c2ccc(O)nc2[C@]2(C)CCO[C@H]12 | 1 to 10 | – | –
20 | CCN1c2ccc(O)nc2[C@]2(C)CCO[C@H]12 | 1 to 10 | – | –
21 | CN1c2ccc(OC(=O)Nc3ccccc3)nc2[C@]2(C)CCO[C@H]12 | 1 to 10 | – | –
22 | CN1c2ccc(OC(=O)Nc3ccncc3)cc2[C@]2(C)CCO[C@H]12 (racemic) | – | > 5 | –
23 | CN1c2ccc(OC(=O)Nc3ccccc3)cc2[C@]2(C)CCO[C@H]12 [Compound 1, phensvenine] | – | – | nSMase2 inhibitory activity [1]: has nSMase2 inhibitory activity; also recorded: weak nSMase2 inhibition; IC50 ([1]; IC50 nSMase2): > 1 µM; IC50 ([2]; AChE IC50): 0.5 µM; CNS perm (PAMPA) [3]: 3.2; fraction unbound [4]: 0.12

Row | Compound | IC50 ([1]; IC50 (nSMase2) Groups: A-D) [µM] | IC50 ([2]; AChE activity) [µM] | other results
24 | COc1ccc(NC(=O)Oc2ccc3c(c2)[C@]2(C)CCO[C@@H]2N3C)cc1 [Compound 2] | – | – | IC50 ([1]; IC50 nSMase2): 0.7 µM; IC50 ([2]; IC50 AChE): 3.6 µM; CNS perm (PAMPA) [3]: 2; fraction unbound [4]: 0.15
25 | COc1cccc(NC(=O)Oc2ccc3c(c2)[C@]2(C)CCO[C@@H]2N3C)c1 [Compound 3] | – | – | IC50 ([2]; IC50 AChE): 0.1 µM; CNS perm (PAMPA) [3]: 2.3; fraction unbound [4]: 0.1
26 | CN1c2ccc(OC(=O)Nc3ccc(OC(F)(F)F)cc3)cc2[C@]2(C)CCO[C@H]12 [Compound 4] | – | – | IC50 ([1]; IC50 nSMase2): 2.7 µM; IC50 ([2]; IC50 AChE): > 5 µM; CNS perm (PAMPA) [3]: 0.7; fraction unbound [4]: 0.33
27 | CN1c2ccc(OC(=O)NC3CCCCC3)cc2[C@]2(C)CCO[C@H]12 [Compound 5] | – | – | IC50 ([1]; IC50 nSMase2): 3.4 µM; IC50 ([2]; IC50 AChE): 0.3 µM; CNS perm (PAMPA) [3]: 2.8; fraction unbound [4]: 0.17
28 | CC[C@@H]1C[C@@]2(C)c3cc(OC(=O)Nc4ccccc4)ccc3N(C)[C@H]2O1 [Compound 10] | – | – | IC50 ([2]; IC50 AChE): 3.7 µM; CNS perm (PAMPA) [3]: 3.2; fraction unbound [4]: 0.05
29 | CN1c2ccc(OC(=O)Nc3ccc(C(F)(F)F)cc3)cc2[C@]2(C)CCO[C@H]12 [Compound 15] | – | – | IC50 ([2]; IC50 AChE): > 5 µM; CNS perm (PAMPA) ([3]; PAMPA, 2 mM): 2.2; fraction unbound [4]: 0.07
30 | CCN(C)C(=O)Oc1ccc2c(c1)[C@]1(C)CCO[C@@H]1N2C [Compound 16] | – | – | IC50 ([2]; IC50 AChE, Table 2, unit not in table, μM): > 5 µM
31 | CN1c2ccc(OC(=O)Nc3ccccc3)cc2[C@]2(C)CCO[C@H]12 [drawing 32] | 1 to 10 | < 0.5 | –
32 | COc1ccc(NC(=O)Oc2ccc3c(c2)[C@]2(C)CCO[C@@H]2N3C)cc1 [drawing 33] | 1 to 10 | 2.5 to 5 | –
33 | COc1cccc(NC(=O)Oc2ccc3c(c2)[C@]2(C)CCO[C@@H]2N3C)c1 [drawing 34] | 1 to 10 | < 0.5 | –
34 | CN1c2ccc(OC(=O)Nc3ccc(OC(F)(F)F)cc3)cc2[C@]2(C)CCO[C@H]12 [drawing 35] | 10 to 50 | > 5 | –
35 | CN1c2ccc(OC(=O)NC3CCCCC3)cc2[C@]2(C)CCO[C@H]12 [drawing 36] | 1 to 10 | < 0.5 | –
36 | Cc1cc(C)cc(NC(=O)Oc2ccc3c(c2)[C@]2(C)CCO[C@@H]2N3C)c1 [drawing 37] | 1 to 10 | < 0.5 | –
37 | COc1cc(NC(=O)Oc2ccc3c(c2)[C@]2(C)CCO[C@@H]2N3C)cc(OC)c1 [drawing 38] | 1 to 10 | < 0.5 | –
38 | CC[C@H]1C[C@@]2(C)c3cc(OC(=O)Nc4ccccc4)ccc3N(C)[C@H]2O1 [drawing 42] | 1 to 10 | 2.5 to 5 | –
39 | CC[C@@H]1C[C@@]2(C)c3cc(OC(=O)Nc4ccccc4)ccc3N(C)[C@H]2O1 [drawing 43] | 1 to 10 | 2.5 to 5 | –
40 | CN1c2ccc(OC(=O)Nc3ccccn3)cc2[C@]2(C)CCO[C@H]12 [drawing 45] | < 1 | > 5 | –
41 | CN1c2ccc(OC(=O)Nc3ccncc3F)cc2[C@]2(C)CCO[C@H]12 [drawing 62] | < 1 | > 5 | –
42 | CN1c2ccc(OC(=O)Nc3cncc(F)c3)cc2[C@]2(C)CCO[C@H]12 [drawing 63] | < 1 | > 5 | –
43 | CN1c2ccc(OC(=O)Nc3ccc(C(F)(F)F)cc3)cc2[C@]2(C)CCO[C@H]12 [drawing 64] | 1 to 10 | > 5 | –
44 | CCN(C)C(=O)Oc1ccc2c(c1)[C@]1(C)CCO[C@@H]1N2C [drawing 65] | – | > 5 | –
45 | CN1CC[C@@]2(C)c3cc(OC(=O)Nc4ccccc4)ccc3N(C)[C@@H]12 [phenserine, reference compound] | – | – | IC50 ([1]; nSMase2 IC50): > 50 µM
